Measured values as given in PubChem BioAssay (NCI).
“And” between values parts separate entries of the source, which are not always exact repeats. Equal values may be shown once.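 How tested: cells in 96-well plates exposed to compound for 48 hours at five concentrations. GI50 marks 50% less growth. TGI: concentration producing complete growth inhibition.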

Tests used:
Experiment in all cases: NCI tumour cell line growth inhibition, 48 h
SW-620 colon = test system: SW-620 colon
LOX IMVI melanoma = test system: LOX IMVI melanoma
COLO 205 colon = test system: COLO 205 colon
NCI-H226 lung = test system: NCI-H226 lung
NCI-H23 lung = test system: NCI-H23 lung
OVCAR-8 ovarian = test system: OVCAR-8 ovarian
OVCAR-5 ovarian = test system: OVCAR-5 ovarian
SK-MEL-28 melanoma = test system: SK-MEL-28 melanoma
UACC-62 melanoma = test system: UACC-62 melanoma
EKVX NSCLC = test system: EKVX NSCLC

| SMILES | GI50 (SW-620 colon) | TGI (SW-620 colon) | GI50 (LOX IMVI melanoma) | TGI (LOX IMVI melanoma) | GI50 (COLO 205 colon) | TGI (COLO 205 colon) | GI50 (NCI-H226 lung) | TGI (NCI-H226 lung) | GI50 (NCI-H23 lung) | TGI (NCI-H23 lung) | GI50 (OVCAR-8 ovarian) | TGI (OVCAR-8 ovarian) | GI50 (OVCAR-5 ovarian) | TGI (OVCAR-5 ovarian) | GI50 (SK-MEL-28 melanoma) | TGI (SK-MEL-28 melanoma) | GI50 (UACC-62 melanoma) | TGI (UACC-62 melanoma) | GI50 (EKVX NSCLC) | TGI (EKVX NSCLC) |
| --- | --- | --- | --- | --- | --- | --- | --- | --- | --- | --- | --- | --- | --- | --- | --- | --- | --- | --- | --- | --- |
| CC[CH2][Sn]([CH2]CC)([O]C(=O)c1cccnc1SC)[O][Sn]([CH2]CC)([CH2]CC)[O]C(=O)c1cccnc1SC | 0.216 µM | 0.503 µM | 0.23 µM | 0.567 µM | 0.396 µM | 1.08 µM | 0.614 µM | 1.79 µM | 0.218 µM | 0.801 µM | 0.599 µM | 1.92 µM | 2.09 µM | 3.64 µM | 0.296 µM | 0.711 µM | 0.343 µM | 0.809 µM | 0.699 µM | 2.85 µM |
| O=C1c2cc(Cl)ccc2S(=O)(=O)c2c(NCCCNCCO)nc3ccccc3c21 | 0.444 µM | 1.71 µM | 1.58 µM | 2.95 µM | 1.01 µM | 2.35 µM | 10.1 µM | 22.7 µM | 1.77 µM | 4.4 µM | 1.86 µM | 4.53 µM | 1.65 µM | 3.32 µM | 1.76 µM | 3.39 µM | 1.61 µM | 3.35 µM | 1.66 µM | 4.83 µM |
| COc1ccc(-c2cnnc3c(-c4cccc(C(F)(F)F)c4)cnn23)cc1 | > 100 µM | > 100 µM | > 100 µM | > 100 µM | > 100 µM | > 100 µM | 2.64 µM | > 100 µM | 4.26 µM | > 100 µM | 3.33 µM | > 100 µM | > 100 µM | > 100 µM | 3.14 µM | > 100 µM | 4.01 µM | > 100 µM | 3.41 µM | > 100 µM |
| Oc1ccc(CN2CCC(N3CCCCC3)CC2)c2cccnc12 | 17 µM | > 100 µM | 5.32 µM | > 100 µM | 48.4 µM | > 100 µM | 29 µM | 82.2 µM | 6.05 µM | > 100 µM | 7.69 µM | > 100 µM | 45.4 µM | > 100 µM | 21.4 µM | > 100 µM | 4.87 µM | 67.5 µM | 32.4 µM | > 100 µM |
| OCc1c[nH]c2ccccc12 | 17.9 µM | 36.8 µM | 16.2 µM | 32.7 µM | 16 µM | 35.1 µM | 17.4 µM | 48.1 µM | 19.5 µM | 48.1 µM | 29.8 µM | > 100 µM | 20.8 µM | 58.6 µM | 23.5 µM | 50.1 µM | 15.3 µM | 35.8 µM | 15.5 µM | 63.3 µM |
| C=C1C(=O)O[C@H]2[C@H]1CC/C(Cn1cc(-c3ccc(OC)cc3)nn1)=C\CC[C@@]1(C)O[C@@H]21 | 0.498 µM | 1.74 µM | 1.16 µM | 2.51 µM | 0.504 µM | 1.95 µM | 1.99 µM | 4.45 µM | 2.06 µM | 4.58 µM | 2.59 µM | 7.67 µM | 1.71 µM | 3.66 µM | 0.822 µM | 2.41 µM | 1.35 µM | 2.99 µM | 2.47 µM | 10.3 µM |
| CC(C)C(=O)NC(=S)Nc1ccc([N+](=O)[O-])cc1C#N | – | > 100 µM | – | > 100 µM | – | 52.7 µM | – | > 100 µM | – | > 100 µM | – | > 100 µM | – | > 100 µM | – | > 100 µM | – | > 100 µM | – | > 100 µM |
| O=C(N/N=C/c1ccccc1O)c1ccccc1Nc1ccnc(C(F)(F)F)c1 | 2.04 µM | > 100 µM | 0.279 µM | > 54.7 µM | 0.3 µM | 41.3 µM | 1.08 µM | 12.1 µM | 1.33 µM | > 44.9 µM | 0.711 µM | > 37.4 µM | 4.34 µM | > 92.3 µM | 1.71 µM | > 88.1 µM | 0.365 µM | 7 µM | 0.302 µM | 67.2 µM |
| CCOc1cc2c(Cl)ncnc2c(OCC)c1OCC | 2.88 µM | 9.24 µM | 3.39 µM | 10 µM | 12.2 µM | 25.5 µM | 12.7 µM | 33.3 µM | 7.71 µM | 24.2 µM | 6.34 µM | 28.5 µM | 17.9 µM | 33.4 µM | 2.15 µM | 5.26 µM | 6.99 µM | 20.2 µM | 13.3 µM | 29.5 µM |
| CCN(CC)CCOc1ccc(/C(=C(\Cl)c2ccccc2)c2ccccc2)cc1 | 1.11 µM and 1.74 µM | 2.56 µM and 3.73 µM | 0.916 µM and 1.67 µM | 1.89 µM and 3.22 µM | 0.859 µM and 1.36 µM | 1.72 µM and 2.83 µM | 5.46 µM and 4.01 µM | 12.9 µM and 16.3 µM | 5.25 µM and 2.62 µM | 11.8 µM and 10.3 µM | 7 µM and 4.65 µM | 14.3 µM and 18.6 µM | 3.42 µM and 3.33 µM | 9.95 µM and 15.2 µM | 1.07 µM and 1.79 µM | 2.21 µM and 3.47 µM | 1.04 µM and 2.15 µM | 2.33 µM and 4.88 µM | 5.74 µM and 3.44 µM | 13 µM and 17.3 µM |
| C[C@]12CC[C@H]3[C@@H](CC=C4C[C@@H](O)CC[C@@]43C)[C@@H]1CC[C@@H]2N(CCO)CCO | – | > 100 µM | – | > 100 µM | – | > 100 µM | – | > 100 µM | – | > 100 µM | – | > 100 µM | – | > 100 µM | – | > 100 µM | – | > 100 µM | – | 78.1 µM |
| N#Cc1ccc(NC(=O)Nc2ccc(Oc3ccc(NC(=O)Nc4ccc(C#N)cc4)cc3)cc2)cc1 | 26 µM | > 100 µM | 15.7 µM | > 100 µM | 24.6 µM | > 100 µM | 23.1 µM | > 100 µM | 6.53 µM | 56.5 µM | 14.4 µM | > 100 µM | 26.1 µM | > 100 µM | 79.2 µM | > 100 µM | 11.1 µM | > 100 µM | 10.3 µM | > 100 µM |
